Laboratory results from patent US20130302442A1, “METHODS OF USING (4S,4AS,5AR,12AS)-4-DIMETHYLAMINO-3,10,12,12A-TETRAHYDROXY-7-[(METHOXY(METHYL)AMINO)-METHYL]-1,11-DIOXO-1,4,4A,5,5A,6,11,12A-OCTAHYDRO-NAPHTHACENE-2-CARBOXYLIC ACID AMIDE” (priority 2012, published 2013).
Values after ≈ are worked out from the molar mass of the structure shown. Read-outs that look alike come from different tables or passages of the source.

Tests used:
[1] = test system: Bifidobacterium bifidum; test: In vitro MIC testing against anaerobic bacteria; assay type: cell-based; conditions: ATCC15696; Bifidobacterium bifidum 3965, ATCC 15696
[2] = test system: Bifidobacterium brevi; test: In vitro MIC testing against anaerobic bacteria; assay type: cell-based; conditions: ATCC15698; Bifidobacterium brevi 3967, ATCC 15698
[3] = test system: Bifidobacterium infantis; test: In vitro MIC testing against anaerobic bacteria; assay type: cell-based; conditions: ATCC15702; Bifidobacterium infantis 3966, ATCC 15702
[4] = test system: Clostridium perfringens; test: microbe, parasite or virus in culture; assay type: cell-based
[5] = test system: Lactobacillus acidophilus; test: In vitro MIC testing against anaerobic bacteria; assay type: cell-based; conditions: Lactobacillus acidophilus 0681
[6] = test system: Lactobacillus casei; test: In vitro MIC testing against anaerobic bacteria; assay type: cell-based; conditions: Lacticaseibacillus casei, ATCC393; Lactobacillus casei 1722, ATCC 393
[7] = test system: Lactobacillus plantarum; test: In vitro MIC testing against anaerobic bacteria; assay type: cell-based; conditions: Lactiplantibacillus plantarum, ATCC39268; Lactobacillus plantarum 2791, ATCC 39268
[8] = test system: Propionibacterium acnes; test: In vitro MIC testing against anaerobic bacteria; assay type: cell-based; conditions: Cutibacterium acnes, read-out: MIC
[9] = test system: Streptococcus intermedius; test: In vitro MIC testing against anaerobic bacteria; assay type: cell-based; conditions: ATCC27335; Streptococcus intermedius 1203, ATCC 27335
[10] = test system: Bacteroides ovatus; test: In vitro MIC testing against anaerobic bacteria; assay type: cell-based
[11] = test system: Bacteroides thetaiotaomicron; test: In vitro MIC testing against anaerobic bacteria; assay type: cell-based
[12] = test system: Bacteroides vulgatus; test: In vitro MIC testing against anaerobic bacteria; assay type: cell-based
[13] = test system: Eikenella corrodens; test: In vitro MIC testing against anaerobic bacteria; assay type: cell-based; conditions: ATCC43278; Eikenella corrodens 1206, ATCC 43278; read-out: MIC
[14] = test system: Fusobacterium necrophorum; test: In vitro MIC testing against anaerobic bacteria; assay type: cell-based; conditions: ATCC25286; Fusobacterium necrophorum 3963, ATCC 25286; read-out: MIC
[15] = test system: Fusobacterium nucleatum; test: In vitro MIC testing against anaerobic bacteria; assay type: cell-based; conditions: ATCC25586; Fusobacterium nucleatum 3962, ATCC 25586; read-out: MIC
[16] = test system: Porphyromonas asaccharolytica; test: In vitro MIC testing against anaerobic bacteria; assay type: cell-based
[17] = test system: Prevotella spp.; test: In vitro MIC testing against anaerobic bacteria; assay type: cell-based
[18] = test system: Veillonella parvula; test: In vitro MIC testing against anaerobic bacteria; assay type: cell-based; conditions: ATCC17745; Veillonella parvula 1272, ATCC 17745
[19] = test system: P. granulosum; test: In vitro MIC testing, antibacterial spectrum of activity; assay type: cell-based; conditions: P. granulosum [clinical isolates] (3 isolates)
[20] = test system: P. avidum; test: as above; assay type: cell-based; conditions: P. avidum [clinical isolates] (4 isolates)
[21] = test system: S. epidermidis; test: as above; assay type: cell-based, Staphylococcus epidermidis; conditions: for MIC50 / MIC90: Staphylococcus epidermidis; for MIC50: read-out: MIC50; for MIC90: read-out: MIC90
[22] = test system: S. pneumoniae; test: as above; assay type: cell-based, Streptococcus pneumoniae
[23] = test system: S. pyogenes; test: as above; assay type: cell-based
[24] = test system: S. agalactiae; test: as above; assay type: cell-based
[25] = test system: S. haemolyticus; test: as above; assay type: cell-based; conditions: S. haemolyticus (33 isolates)
[26] = test system: Streptococcus spp. [Group C]; test: as above; assay type: cell-based; conditions: Streptococcus spp. [Group C] (30 isolates)
[27] = test system: E. faecium; test: as above; assay type: cell-based; conditions: for MIC / MIC50 / MIC90: Enterococcus faecium; for MIC50: read-out: MIC50; for MIC90: read-out: MIC90
[28] = test system: E. coli; test: as above; assay type: cell-based; conditions: E. coli [tetS] (7 isolates)
[29] = test system: K. pneumoniae; test: as above; assay type: cell-based
[30] = test system: P. mirabilis; test: as above; assay type: cell-based; conditions: Proteus mirabilis; P. mirabilis (30 isolates)
[31] = test system: P. aeruginosa; test: as above; assay type: cell-based; conditions: Pseudomonas aeruginosa; P. aeruginosa (11 isolates)
[32] = S. epidermidis [MRSE] (32 isolates)
[33] = S. epidermidis [MSSE] (31 isolates)
[34] = Klebsiella pneumoniae, K. pneumoniae (31 isolates)

SMILES: C[C@H]1c2cccc(O)c2C(=O)C2=C(O)[C@]3(O)C(=O)C(C(N)=O)=C(O)[C@@H](N(C)C)[C@@H]3[C@@H](O)[C@@H]21 [Doxycycline, doxycycline]
- MIC [1]: 0.5 µg/mL (≈ 1.13 µM)
- MIC [2]: 0.5 µg/mL (≈ 1.13 µM)
- MIC [3]: 0.5 µg/mL (≈ 1.13 µM)
- MIC [4]: 16 µg/mL (≈ 36 µM)
- MIC [5]: 2 µg/mL (≈ 4.5 µM)
- MIC [6]: 2 µg/mL (≈ 4.5 µM)
- MIC [7]: 2 µg/mL (≈ 4.5 µM)
- MIC ([8]; ATCC11829, Propionibacterium acnes 1286, ATCC 11829): 0.5 µg/mL (≈ 1.13 µM)
- MIC ([8]; Propionibacterium acnes 1713): 0.12 µg/mL (≈ 0.27 µM)
- MIC [9]: 0.5 µg/mL (≈ 1.13 µM)
- MIC ([10]; Bacteroides ovatus 3503, read-out: MIC): 8 µg/mL (≈ 18 µM)
- MIC ([10]; Bacteroides ovatus 3508, read-out: MIC): 0.12 µg/mL (≈ 0.27 µM)
- MIC ([11]; Bacteroides thetaiotaomicron 3399): 0.25 µg/mL (≈ 0.563 µM)
- MIC ([11]; Bacteroides thetaiotaomicron 3496): 16 µg/mL (≈ 36 µM)
- MIC ([12]; Bacteroides vulgatus 3494): 8 µg/mL (≈ 18 µM)
- MIC ([12]; Phocaeicola vulgatus, Bacteroides vulgatus 3389, read-out: MIC): 8 µg/mL (≈ 18 µM)
- MIC [13]: 0.12 µg/mL (≈ 0.27 µM)
- MIC [14]: 0.5 µg/mL (≈ 1.13 µM)
- MIC [15]: 0.5 µg/mL (≈ 1.13 µM)
- MIC ([16]; Porphyromonas asaccharolytica 3552, read-out: MIC): 4 µg/mL (≈ 9 µM)
- MIC ([16]; Porphyromonas asaccharolytica 3557, read-out: MIC): 2 µg/mL (≈ 4.5 µM)
- MIC ([17]; Prevotella spp. 3564): 1 µg/mL (≈ 2.25 µM)
- MIC ([17]; Prevotella spp. 3568): 1 µg/mL (≈ 2.25 µM)
- MIC [18]: 1 µg/mL (≈ 2.25 µM)
- MIC Range [19]: 0.5 to 1 µg/mL
- MIC Range [20]: 0.5 to 4 µg/mL
- MIC Range [21, 32]: 0.12 to 8 µg/mL
- MIC Range [21, 33]: 0.06 to 1 µg/mL
- MIC50 [21, 32]: 0.5 µg/mL (≈ 1.13 µM)
- MIC90 [21, 32]: 1 µg/mL (≈ 2.25 µM)
- MIC50 [21, 33]: 0.12 µg/mL (≈ 0.27 µM)
- MIC90 [21, 33]: 1 µg/mL (≈ 2.25 µM)
- MIC Range ([22]; S. pneumoniae [tetR] (5 isolates)): 4-4 μg/mL
- MIC Range ([22]; S. pneumoniae [tetS] (5 isolates)): ≦0.06-0.125 μg/mL
- MIC50 ([22]; Streptococcus pneumoniae, S. pneumoniae [PSSP] (32 isolates), read-out: MIC50): 0.06 µg/mL (≈ 0.135 µM)
- MIC90 ([22]; Streptococcus pneumoniae, S. pneumoniae [PSSP] (32 isolates), read-out: MIC90): 0.12 µg/mL (≈ 0.27 µM)
- MIC ([22]; Streptococcus pneumoniae, S. pneumoniae strain PBS # 511, tetM): 4 µg/mL (≈ 9 µM)
- MIC Range ([23]; S. pyogenes (32 isolates)): 0.06 to 8 µg/mL
- MIC Range ([23]; S. pyogenes [tetR] (5 isolates)): 4 to 8 µg/mL
- MIC Range ([23]; S. pyogenes [tetS] (5 isolates)): ≦0.06-0.125 μg/mL
- MIC ([23]; Streptococcus pyogenes, S. pyogenes strain PBS # 330, tetO): 8 µg/mL (≈ 18 µM)
- MIC ([23]; Streptococcus pyogenes, S. pyogenes strain PBS # 792, tetM): 4 µg/mL (≈ 9 µM)
- MIC50 ([23]; Streptococcus pyogenes, S. pyogenes (32 isolates), read-out: MIC50): 0.12 µg/mL (≈ 0.27 µM)
- MIC90 ([23]; Streptococcus pyogenes, S. pyogenes (32 isolates), read-out: MIC90): 4 µg/mL (≈ 9 µM)
- MIC Range ([24]; S. agalactiae (31 isolates)): 0.06 to 16 µg/mL
- MIC Range ([24]; S. agalactiae [tetR] (7 isolates)): 8 to 16 µg/mL
- MIC Range ([24]; S. agalactiae [tetS] (3 isolates)): 0.25-0.25 μg/mL
- MIC ([24]; Streptococcus agalactiae, S. agalactiae strain PBS # 316, tetO): 8 µg/mL (≈ 18 µM)
- MIC ([24]; Streptococcus agalactiae, S. agalactiae strain PBS # 897, tetM): 8 µg/mL (≈ 18 µM)
- MIC50 ([24]; Streptococcus agalactiae, S. agalactiae (31 isolates), read-out: MIC50): 8 µg/mL (≈ 18 µM)
- MIC90 ([24]; Streptococcus agalactiae, S. agalactiae (31 isolates), read-out: MIC90): 16 µg/mL (≈ 36 µM)
- MIC Range [25]: 0.06 to 16 µg/mL
- MIC50 ([25]; Staphylococcus haemolyticus, read-out: MIC50): 0.5 µg/mL (≈ 1.13 µM)
- MIC90 ([25]; Staphylococcus haemolyticus, read-out: MIC90): 16 µg/mL (≈ 36 µM)
- MIC Range [26]: 0.06 to 16 µg/mL
- MIC50 ([26]; read-out: MIC50): 0.12 µg/mL (≈ 0.27 µM)
- MIC90 ([26]; read-out: MIC90): 8 µg/mL (≈ 18 µM)
- MIC Range ([27]; E. faecium [VRE] (30 isolates)): 0.06 to 16 µg/mL
- MIC Range ([27]; E. faecium [VSE] (32 isolates)): 0.06 to 32 µg/mL
- MIC Range ([27]; E. faecium [tetR] (6 isolates)): 4 to 16 µg/mL
- MIC ([27]; E. faecium strain PBS # 965, tetM): 4 µg/mL (≈ 9 µM)
- MIC ([27]; E. faecium strain PBS # 1323, tetK): 4 µg/mL (≈ 9 µM)
- MIC ([27]; E. faecium strain PBS # 1324, tetO): 4 µg/mL (≈ 9 µM)
- MIC50 ([27]; E. faecium [VRE] (30 isolates)): 1 µg/mL (≈ 2.25 µM)
- MIC90 ([27]; E. faecium [VRE] (30 isolates)): 8 µg/mL (≈ 18 µM)
- MIC50 ([27]; E. faecium [VSE] (32 isolates)): 0.5 µg/mL (≈ 1.13 µM)
- MIC90 ([27]; E. faecium [VSE] (32 isolates)): 16 µg/mL (≈ 36 µM)
- MIC Range [28]: 0.5 to 4 µg/mL
- MIC Range ([29]; K. pneumoniae [tetS] (7 isolates)): 0.5 to 8 µg/mL
- MIC50 [29, 34]: 8 µg/mL (≈ 18 µM)
- MIC90 [29, 34]: > 32 µg/mL
- MIC50 [30]: > 32 µg/mL
- MIC90 [30]: > 32 µg/mL
- MIC50 [31]: > 32 µg/mL
- MIC90 [31]: > 32 µg/mL
